pIC50: −log10 of the molar value.
Target: T1, Recombinant human His-tagged Trim24-PHD-bromodomain (Homo sapiens, UniProt O15164)
T1 construct: Recombinant human His-tagged Trim24-PHD-bromodomain (produced in-house); made in house
T1 sequence (O15164 824-1006 limits assumed): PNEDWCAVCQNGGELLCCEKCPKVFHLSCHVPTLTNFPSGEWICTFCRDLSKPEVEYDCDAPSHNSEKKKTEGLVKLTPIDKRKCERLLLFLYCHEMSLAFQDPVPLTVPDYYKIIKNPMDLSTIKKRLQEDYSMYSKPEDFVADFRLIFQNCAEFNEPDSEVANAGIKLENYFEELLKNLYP
Experiment: Trim24 AlphaScreen Assay
Assay type: binding
Settings: 5 nM Trim24 protein, 15 nM biotinylated H3K23ac (1-33aa) peptide
Summary of the method: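 His-tagged Trim24-PHD-bromodomain, biotinylated H3K23ac (1-33aa) peptide and compound incubated 1 h at room temperature in 50 mM Hepes pH 7.5, 100 mM NaCl, 0.12 mM Triton X-100.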

Compound	pIC50
Cc1nn(C)cc1S(=O)(=O)Nc1cc2c(cc1Oc1cccc(OCc3ccccc3)c1)n(C)c(=O)n2C [Example 23, N-(6-(3-(benzyloxy)phenoxy)-1,3-dimethyl-2-oxo-2,3-dihydro-1H-benzo[d]imidazol-5-yl)-1,3-dimethyl-1H-pyrazole-4-sulfonamide]	6.00 to 7.00
Cn1c(=O)n(C)c2cc(Oc3cccc(OCc4ccccc4)c3)c(NS(=O)(=O)c3ccsc3)cc21 [Example 21, N-(6-(3-(benzyloxy)phenoxy)-1,3-dimethyl-2-oxo-2,3-dihydro-1H-benzo[d]imidazol-5-yl)thiophene-3-sulfonamide]	< 6.00
COCCOc1cccc(Oc2cc3c(cc2NS(=O)(=O)c2cn(C)c(C)n2)n(C)c(=O)n3C)c1 [Example 53, N-(6-(3-(2-methoxyethoxy)phenoxy)-1,3-dimethyl-2-oxo-2,3-dihydro-1H-benzo[d]imidazol-5-yl)-1,2-dimethyl-1H-imidazole-4-sulfonamide]	6.00 to 7.00
CCCOc1cc(OCCCCN(C)C)cc(Oc2cc3c(cc2NS(=O)(=O)c2cnn(C)c2C)n(C)c(=O)n3C)c1 [Example 217, N-(6-(3-(4-(dimethylamino)butoxy)-5-propoxyphenoxy)-1,3-dimethyl-2-oxo-2,3-dihydro-1H-benzo[d]imidazol-5-yl)-1,5-dimethyl-1H-pyrazole-4-sulfonamide]	7.00 to 8.00
Cn1c(=O)n(C)c2cc(Oc3cccc(OCc4ccccc4)c3)c(NS(=O)(=O)c3ccccc3)cc21 [Example 13, N-(6-(3-(benzyloxy)phenoxy)-1,3-dimethyl-2-oxo-2,3-dihydro-1H-benzo[d]imidazol-5-yl)benzenesulfonamide]	< 6.00
Cn1cnc(S(=O)(=O)Nc2cc3c(cc2Oc2cccc(OCc4cccc(C#N)c4)c2)n(C)c(=O)n3C)c1 [Example 40, N-(6-(3-((3-cyanobenzyl)oxy)phenoxy)-1,3-dimethyl-2-oxo-2,3-dihydro-1H-benzo[d]imidazol-5-yl)-1-methyl-1H-imidazole-4-sulfonamide]	< 6.00
CCCOc1cc(OCCCO)cc(Oc2cc3c(cc2NS(=O)(=O)c2cn(C)c(C)n2)n(C)c(=O)n3C)c1 [Example 98, N-(6-(3-(3-hydroxypropoxy)-5-propoxyphenoxy)-1,3-dimethyl-2-oxo-2,3-dihydro-1H-benzo[d]imidazol-5-yl)-1,2-dimethyl-1H-imidazole-4-sulfonamide]	7.00 to 8.00
CCCOc1cc(OCCCOC)cc(Oc2cc3c(cc2NS(=O)(=O)c2cccc(CC)c2)n(C)c(=O)n3C)c1 [Example 160, 3-ethyl-N-(6-(3-(3-methoxypropoxy)-5-propoxyphenoxy)-1,3-dimethyl-2-oxo-2,3-dihydro-1H-benzo[d]imidazol-5-yl)benzenesulfonamide]	6.00 to 7.00
COc1ccc(S(=O)(=O)Nc2cc3c(cc2Oc2cccc(OCC(F)(F)F)c2)n(C)c(=O)n3C)cn1 [Example 221, N-(1,3-dimethyl-2-oxo-6-(3-(2,2,2-trifluoroethoxy)phenoxy)-2,3-dihydro-1H-benzo[d]imidazol-5-yl)-6-methoxypyridine-3-sulfonamide]	7.00 to 8.00
CCCOc1cc(OCCCCN2CCCC2)cc(Oc2cc3c(cc2NS(=O)(=O)c2ccc(OC)c(OC)c2)n(C)c(=O)n3C)c1 [Example 250, N-(1,3-dimethyl-2-oxo-6-{3-propoxy-5-[4-(pyrrolidin-1-yl)butoxy]phenoxy}-2,3-dihydro-1H-1,3-benzodiazol-5-yl)-3,4-dimethoxybenzene-1-sulfonamide]	7.00 to 8.00
Cc1nc(S(=O)(=O)Nc2cc3c(cc2Oc2ccc(F)c(OCC4CC4)c2)n(C)c(=O)n3C)cn1C [Example 130, N-(6-(3-(cyclopropylmethoxy)-4-fluorophenoxy)-1,3-dimethyl-2-oxo-2,3-dihydro-1H-benzo[d]imidazol-5-yl)-1,2-dimethyl-1H-imidazole-4-sulfonamide]	< 6.00
CCCOc1cc(OCCCCN)cc(Oc2cc3c(cc2NS(=O)(=O)c2ccccn2)n(C)c(=O)n3C)c1 [Example 198, N-(6-(3-(4-aminobutoxy)-5-propoxyphenoxy)-1,3-dimethyl-2-oxo-2,3-dihydro-1H-benzo[d]imidazol-5-yl)pyridine-2-sulfonamide]	7.00 to 8.00
CC(CO)COc1cccc(Oc2cc3c(cc2NS(=O)(=O)c2cn(C)cn2)n(C)c(=O)n3C)c1 (stereo not shown) [Example 230, N-(6-(3-(3-hydroxy-2-methylpropoxy)phenoxy)-1,3-dimethyl-2-oxo-2,3-dihydro-1H-benzo[d]imidazol-5-yl)-1-methyl-1H-imidazole-4-sulfonamide]	6.00 to 7.00
CCCOc1cc(OCCCCCCO)cc(Oc2cc3c(cc2NS(=O)(=O)c2cnn(C)c2C)n(C)c(=O)n3C)c1 [Example 178, N-(6-(3-((6-hydroxyhexyl)oxy)-5-propoxyphenoxy)-1,3-dimethyl-2-oxo-2,3-dihydro-1H-benzo[d]imidazol-5-yl)-1,5-dimethyl-1H-pyrazole-4-sulfonamide]	7.00 to 8.00
Cn1cnc(S(=O)(=O)Nc2cc3c(cc2Oc2cccc(OCC(C)(C)O)c2)n(C)c(=O)n3C)c1 [Example 238, N-{6-[3-(2-hydroxy-2-methylpropoxy)phenoxy]-1,3-dimethyl-2-oxo-2,3-dihydro-1H-1,3-benzodiazol-5-yl}-1-methyl-1H-imidazole-4-sulfonamide]	6.00 to 7.00
CC(C)COc1cc(Cl)cc(Oc2cc3c(cc2NS(=O)(=O)c2cn(C)cn2)n(C)c(=O)n3C)c1 [Example 223, N-(6-(3-chloro-5-isobutoxyphenoxy)-1,3-dimethyl-2-oxo-2,3-dihydro-1H-benzo[d]imidazol-5-yl)-1-methyl-1H-imidazole-4-sulfonamide]	7.00 to 8.00
Cn1cc(S(=O)(=O)Nc2cc3c(cc2Oc2cccc(OCC(F)(F)F)c2)n(C)c(=O)n3C)cn1 [Example 72, N-(1,3-dimethyl-2-oxo-6-(3-(2,2,2-trifluoroethoxy)phenoxy)-2,3-dihydro-1H-benzo[d]imidazol-5-yl)-1-methyl-1H-pyrazole-4-sulfonamide]	7.00 to 8.00
COc1cccc(Oc2cc3c(cc2NS(=O)(=O)c2cn(C)cn2)n(C)c(=O)n3C)c1 [Example 63, N-(6-(3-methoxyphenoxy)-1,3-dimethyl-2-oxo-2,3-dihydro-1H-benzo[d]imidazol-5-yl)-1-methyl-1H-imidazole-4-sulfonamide]	6.00 to 7.00
Cn1cnc(S(=O)(=O)Nc2cc3c(cc2Oc2cccc(OCc4ccncc4)c2)n(C)c(=O)n3C)c1 [Example 30, N-(1,3-dimethyl-2-oxo-6-(3-(pyridin-4-ylmethoxy)phenoxy)-2,3-dihydro-1H-benzo[d]imidazol-5-yl)-1-methyl-1H-imidazole-4-sulfonamide]	6.00 to 7.00
COc1ccc(S(=O)(=O)Nc2cc3c(cc2Oc2cccc(OCC4CC4)c2)n(C)c(=O)n3C)cc1OC [Example 127, N-(6-(3-(cyclopropylmethoxy)phenoxy)-1,3-dimethyl-2-oxo-2,3-dihydro-1H-benzo[d]imidazol-5-yl)-3,4-dimethoxybenzenesulfonamide]	7.00 to 8.00
CCCOc1cc(OCCCOC)cc(Oc2cc3c(cc2NS(=O)(=O)c2ccc(OCC)c(C)c2)n(C)c(=O)n3C)c1 [Example 161, 4-ehoxy-N-(6-(3-(3-methoxypropoxy)-5-propoxyphenoxy)-1,3-dimethyl-2-oxo-2,3-dihydro-benzo[d]imidazol-5-yl)-3-methylbenzenesulfonamide]	6.00 to 7.00
CCOc1cc(OCC(C)C)cc(Oc2cc3c(cc2NS(=O)(=O)c2cn(C)cn2)n(C)c(=O)n3C)c1 [Example 225, N-(6-(3-ethoxy-5-isobutoxyphenoxy)-1,3-dimethyl-2-oxo-2,3-dihydro-1H-benzo[d]imidazol-5-yl)-1-methyl-1H-imidazole-4-sulfonamide]	7.00 to 8.00
Cc1nc(S(=O)(=O)Nc2cc3c(cc2Oc2cccc(OCc4ccccc4)c2)n(C)c(=O)n3C)c[nH]1 [Example 49, N-(6-(3-(benzyloxy)phenoxy)-1,3-dimethyl-2-oxo-2,3-dihydro-1H-benzo[d]imidazol-5-yl)-2-methyl-1H-imidazole-4-sulfonamide]	6.00 to 7.00
CCCOc1cc(OCCCCCCN)cc(Oc2cc3c(cc2N(C)S(=O)(=O)c2ccc(OC)c(OC)c2)n(C)c(=O)n3C)c1 [Example 245, N-(6-(3-((6-aminohexyl)oxy)-5-propoxyphenoxy)-1,3-dimethyl-2-oxo-2,3-dihydro-1H-benzo[d]imidazol-5-yl)-3,4-dimethoxy-N-methylbenzenesulfonamide]	6.00 to 7.00
COc1ccc(S(=O)(=O)Nc2cc3c(cc2Oc2cc(OCCCCN)cc(OCC(F)(F)F)c2)n(C)c(=O)n3C)cc1OC [Example 210, N-(6-(3-(4-aminobutoxy)-5-(2,2,2-trifluoroerthoxy)phenoxy)-1,3-dimethyl-2-oxo-2,3-dihydro-1H-benzo[d]imidazol-5-yl)-3,4-dimethoxybenzenesulfonamide]	7.00 to 8.00
CCCOc1cc(OCCCCCCNC(C)=O)cc(Oc2cc3c(cc2NS(=O)(=O)c2cn(C)cn2)n(C)c(=O)n3C)c1 [Example 242, N-(6-(3-((1,3-dimethyl-6-(1-methyl-1H-imidazole-4-sulfonamido)-2-oxo-2,3-dihydro-1H-benzo[d]imidazol-5-yl)oxy)-5-propoxyphenoxy)hexyl)acetamide]	7.00 to 8.00
COC(=O)c1cccc(S(=O)(=O)Nc2cc3c(cc2Oc2cccc(OCC(F)(F)F)c2)n(C)c(=O)n3C)c1 [Example 192, methyl 3-(N-(1,3-dimethyl-2-oxo-6-(3-(2,2,2-trifluoroethoxy)phenoxy)-2,3-dihydro-1H-benzo[d]imidazol-5-yl)sulfamoyl)benzoate]	7.00 to 8.00
Cn1c(=O)n(C)c2cc(Oc3cccc(OCC(F)(F)F)c3)c(NS(=O)(=O)C3CCOC3)cc21 (stereo not shown) [Example 95, N-(1,3-dimethyl-2-oxo-6-(3-(2,2,2-trifluoroethoxy)phenoxy)-2,3-dihydro-1H-benzo[d]imidazol-5-yl)tetrahydrofuran-3-sulfonamide]	6.00 to 7.00
